Structures can show the parent of a compound that is named as a salt.
Tests used:
CRACM1/STIM1-CHOK1 = molecular target: T1, CRACM1/STIM1-CHOK1 (Homo sapiens, UniProt Q96D31); assay: Patch clamp inhibition of ICRAC current in CRACM1/STIM1-CHOK1 cells; type: cell-based; conditions: 500 nM; given as activity class
T1 construct: Full length human Stim1, CracM1, CracM2 and CracM3 cDNA; Stim1 induced with doxycycline
Description: Manual patch clamp experiments are conducted in the tight-seal whole-cell configuration at room temperature (21-25° C.). Patch pipettes are fashioned from borosilicate glass capillary tubes and have resistances between 2-4 MΩ after filling with standard intracellular solution. High resolution current recordings are acquired with a computer-based patch clamp amplifier system (EPC-10, HEKA, Lambrecht, Germany). All voltages are corrected for a liquid junction potential of 10 mV between external and internal solutions with glutamate as the intracellular anion. Currents are filtered at 2.9 kHz and digitized at 10 μs intervals. Capacitive currents and series resistance are determined and corrected before each voltage ramp using the automatic capacitance compensation of the EPC-10.
Automated patch clamp experiments are conducted with the QPatch 16 (Sophion Bioscience, Ballerup, Denmark) at room temperature (21-25° C.). Immediately following the establishment of giga-seal whole-cell configuration, the cells membrane potential is clamped at 0 mV. Voltage ramps of 50 ms duration spanning the voltage range of −100 to +100 mV are then stimulated at a rate of 0.33 Hz. Currents are filtered at 2.9 kHz and digitized at 200 μs intervals. Capacitive currents and series resistance are determined and corrected before each voltage ramp using the automatic capacitance compensation.
In general, a whole cell patch clamp method is used to examine the effects of a compound of the invention on a channel(s) that mediates ICRAC. In such experiments, a baseline ICRAC measurement is established within the first 70 voltage ramps, or 140 seconds, for a patched cell. Then the cells are perfused with the compound to be tested and the effect of the compound on ICRAC is measured for at least an additional 440 to 500 seconds. A compound that modulates ICRAC (e.g., inhibits) is a compound that is useful in the invention for modulating CRAG ion channel activity.
Off-line analysis with the Heka PatchMaster software is used to separate the ICRAC membrane current from the cells basal background currents. In a typical recording, InsP3 stimulated ICRAC currents begin to develop in 6 to 12 seconds after whole cell is established. Therefore, the first 1-4 voltage ramps represent the basal membrane currents in the absence of ICRAC and the average value is subtracted from all subsequent traces. The current value at −80 mV for each ramp trace is then measured and plotted against time. The resulting current versus time data is exported into a Microsoft Excel spreadsheet. The % ICRAC inhibition in each cell is calculated by comparing the amount of current just prior to the compound perfusion to the amount of current after the cells has been perfused with the compound for 440-500 seconds. The IC50 value and Hill coefficient for each compound is estimated by fitting all the individual data points to a single-site Hill equation.
TREx™-CHO cells were transfected with human Stim1 (recombinant DNA in pcDNA4/TO/myc-His™ A with a myc epitope tag in the N-terminal) and either CracM1, CracM2 or CracM3 (recombinant DNA in pcDNA 3.1 with a HA epitope tag in the N-terminal). Stably expressing cells were selected by growing the transfected cells in antibiotics for two to three weeks. Individual cell clones were isolated via serial dilution. Full length human Stim1, CracM1, CracM2 and CracM3 cDNA, TREx™-CHO cells, pcDNA4/TO/myc-His™ A and pcDNA 3.1 were purchased from Invitrogen (Carlsbad, Calif.). All cells clones are grown in Ham's F-12 media supplemented with 10% fetal bovine serum, penicillin 100 U/ml, streptomycin 100 ? g/ml, Zeocin™ (200 ? g/ml), Geneticin (500 ? g/ml) and blasticidin (10 ? g/ml) in an atmosphere of 95% air/5% CO2. Stim1 expression was induced with doxycycline (1 ? g/ml) for 16-20 hrs. […]

[1] = system: IL-2 production, Jurkat cells; assay: Inhibition of IL-2 production in PHA-activated Jurkat cells (ELISA); type: cell-based; conditions: Homo sapiens, 1% FBS, given as activity class
Description: Jurkat cells were placed in a 96 well plate (0.5 million cells per well in 1% FBS medium), and then a test compound of this invention was added at different concentrations. After 10 minutes, the cells were activated with PHA (final concentration 2.5 μg/mL) and incubated for 20 hours at 37° C. under 5% CO2. The final volume was 200 μL. Following incubation, the cells were centrifuged, and the supernatants collected and stored at −70° C. prior to assaying for IL-2 production. A commercial ELISA kit (IL-2 Eli-pair, Diaclone Research, Besancon, France) was used to detect production of IL-2, from which dose response curves were obtained. The IC50 value was calculated as the concentration at which 50% of maximum IL-2 production after stimulation was inhibited versus a non-stimulation control.

T1 sequence (Q96D31 whole entry): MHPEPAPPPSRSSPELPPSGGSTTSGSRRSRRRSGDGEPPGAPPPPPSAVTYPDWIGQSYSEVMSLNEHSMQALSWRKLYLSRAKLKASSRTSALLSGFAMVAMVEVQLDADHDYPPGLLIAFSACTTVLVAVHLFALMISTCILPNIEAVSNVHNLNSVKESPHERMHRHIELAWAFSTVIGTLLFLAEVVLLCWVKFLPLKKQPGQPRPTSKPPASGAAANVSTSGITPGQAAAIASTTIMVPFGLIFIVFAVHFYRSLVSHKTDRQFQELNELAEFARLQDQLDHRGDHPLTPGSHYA

Structure (SMILES) | inhibition at 0.5 µM (CRACM1/STIM1-CHOK1) | IC50 [1]
Cc1ccc(CCc2cccnc2)cc1-c1cnc(NC(=O)c2c(F)cccc2F)cn1 [Compound 16, 2,6-difluoro-N-(5-(2-methyl-5-(2-(pyridin-3-yl)ethyl)phenyl)-pyrazin-2-yl)benzamide] | 50 to 70% | < 50 nM
Cc1ccc(CCc2ccccn2)cc1-c1ccc(NC(=O)c2c(F)cccc2F)cc1 [Compound 17, 2,6-difluoro-N-(2′-methyl-5′-(2-(pyridin-2-yl)ethyl)biphenyl-4-yl)benzamide] | 70 to 100% | 50 to 100 nM
Cn1cncc1-c1cnc(-c2ccc(Cl)c(-c3ccc(NC(=O)c4c(F)cccc4F)nc3)c2)s1 [Compound 18, N-(5-(2-chloro-5-(5-(1-methyl-1H-imidazol-5-yl)thiazol-2-yl)phenyl)pyridin-2-yl)-2,6-difluorobenzamide] | 50 to 70% | 50 to 100 nM
Cc1ccc(-c2nc(-c3cccnc3)cs2)cc1-c1ccc(NC(=O)c2c(F)cccc2F)cc1 [Compound 19, 2,6-difluoro-N-(2′-methyl-5′-(4-(pyridin-3-yl)thiazol-2-yl)biphenyl-4-yl)benzamide hydrochloride] | < 50% | < 50 nM
Cc1ccc(-c2nc(-c3cccnc3)cs2)cc1-c1cnc(NC(=O)c2c(F)cccc2F)cn1 [Compound 20, 2,6-difluoro-N-(5-(2-methyl-5-(4-(pyridin-3-yl)thiazol-2-yl)phenyl)pyrazin-2-yl)benzamide] | 70 to 100% | < 50 nM
Cc1ccc(-c2ncc(-c3cnco3)s2)cc1-c1ccc(NC(=O)c2c(F)cccc2F)cc1 [Compound 21, 2,6-difluoro-N-(2′-methyl-5′-(5-(oxazol-5-yl)thiazol-2-yl)biphenyl-4-yl)benzamide] | < 50% | 50 to 100 nM
COc1ccc(-c2ccc(C)c(-c3ccc(NC(=O)c4c(F)cccc4F)cc3)c2)cn1 [Compound 22, 2,6-difluoro-N-(5′-(6-methoxypyridin-3-yl)-2′-methylbiphenyl-4-yl)benzamide] | 70 to 100% | < 50 nM

Reference: patent publication US20100130522A1, “COMPOUNDS FOR INFLAMMATION AND IMMUNE-RELATED USES” (Synta Pharmaceuticals Corp., priority 2008, published 2010)
